≈ marks a conversion by molar mass, not a printed value. Where two headings read alike, the source gives them in different places.
Assays:
[1] = system: Mtb mc^27902 pMV261; assay: microbe, parasite or virus in culture; assay type: cell-based; settings: Mycobacterium tuberculosis
[2] = system: B. cereus NCTC 7464; assay: Non-mycobacterial REMA assay; assay type: cell-based; settings: Bacillus cereus, NCTC7464, read-out: Minimum inhibitory concentration 95%
[3] = system: S. pyogenes NCTC 8198; assay: Non-mycobacterial REMA assay; assay type: cell-based; settings: Streptococcus pyogenes, NCTC8198, read-out: Minimum inhibitory concentration 95%
[4] = system: S. agalactiae NCTC 8181; assay: Non-mycobacterial REMA assay; assay type: cell-based; settings: Streptococcus agalactiae, NCTC8181, read-out: Minimum inhibitory concentration 95%
[5] = system: E. faecalis NCTC 775; assay: Non-mycobacterial REMA assay; assay type: cell-based; settings: Enterococcus faecalis, NCTC775, read-out: Minimum inhibitory concentration 95%
[6] = system: E. faecium NCTC 7171; assay: Non-mycobacterial REMA assay; assay type: cell-based; settings: Enterococcus faecium, NCTC7171, read-out: Minimum inhibitory concentration 95%
[7] = system: S. aureus NCTC 2981; assay: Non-mycobacterial REMA assay; assay type: cell-based; settings: Staphylococcus aureus, NCTC2981, read-out: Minimum inhibitory concentration 95%
[8] = system: K. pneumoniae NCTC 9633; assay: Non-mycobacterial REMA assay; assay type: cell-based; settings: Klebsiella pneumoniae, NCTC9633, read-out: Minimum inhibitory concentration 95%
[9] = system: A. baumannii NCTC 12156; assay: Non-mycobacterial REMA assay; assay type: cell-based; settings: Acinetobacter baumannii, NCTC12156, read-out: Minimum inhibitory concentration 95%
[10] = system: P. aeruginosa DSM 19880; assay: Non-mycobacterial REMA assay; assay type: cell-based; settings: Pseudomonas aeruginosa, DSM19880, read-out: Minimum inhibitory concentration 95%
[11] = system: E. cloacae NCTC 10005; assay: Non-mycobacterial REMA assay; assay type: cell-based; settings: Enterobacter cloacae, NCTC10005, read-out: Minimum inhibitory concentration 95%
[12] = system: E. coli K12; assay: Non-mycobacterial REMA assay; assay type: cell-based; settings: Escherichia coli, read-out: Minimum inhibitory concentration 95%
Protocol: (§1) Bacterial minimum inhibition concentrations (MIC) were determined using the Resazurin Microtiter Assay (REMA) method according to Palomino et al.[28] Stock solutions of the tested compounds were prepared in sterile dimethyl sulfoxide (DMSO), then diluted in 7H9OPALPen^1Cyc^10(Kan^25) to obtain a final drug concentration range of 32–0.032 μg/mL. A suspension of the test Mycobacterium was cultured in 7H9OPALPen^1Cyc^10(Kan^25) containing 0.05% v/v Tween^80 for one week at 37 °C, 5% CO2. The bacterial suspension was adjusted to 0.5 McFarland and diluted in 7H9OPALPen^1Cyc^10(Kan^25) 1:25. 100 μL of the inoculum was added to each well of a 96-well microplate together with 100 μL of the compound titration. The plate was incubated at 37 °C, 5% CO2. After 5 days, 10.5 μL 0.1% (w/v) sterile resazurin (solubilised in sterile PBS containing 0.02% v/v Tween^80) was added. Reduced resazurin was detected using fluorescence (Ex/Em 530/590 nm) in a FLUOstar Optima, BMG Labtech. All titre measurements were plotted in SigmaPlot™ and 4-parameter logistic (4PL) model regressions conducted. The relative MIC95 of each curve was calculated and averaged (Table 1). Testing was performed in duplicate with two independent biological repeats. […] Though, for these cultures, dilutions were performed at 1:125 prior to inoculation of the plate and incubation for 4 h (Supplementary Table 3). Known antitubercular agents used in this study were rifampicin (RIF), isoniazid (INH), ISO, EMB, ethionamide (ETH), linezolid (LZD), delamanid (DEL) and moxifloxacin (MOX).

[13] = system: S. enterica NCTC 6754; assay: Non-mycobacterial REMA assay; assay type: cell-based; settings: Salmonella enterica, NCTC6754, read-out: Minimum inhibitory concentration 95%
Protocol: as §1

[14] = system: RAW264.7 murine macrophage cells; assay: cells; assay type: cell-based; settings: for viability at 100 µM / IC50: Mus musculus; for viability at 100 µM: RAW264.7, 96 h, RAW264.7 macrophage, 96 h, read-out: MTS percentage survival @ 100 µM; for IC50: RAW264.7 macrophages, 0 to 100 µM, read-out: IC50 (cell viability, MTS assay)
[15] = system: HepG2 human liver cancer cell line; assay: MTS cytotoxicity assay, liver cells; assay type: cell-based; settings: 96 h, read-out: MTS percentage survival @ 100 µM
[16] = system: AC10 hybrid adult ventricular cardiomyocytes; assay: MTS cytotoxicity assay, cardiomyocytes; assay type: cell-based; settings: Homo sapiens, AC10 cardiac, 96 h, read-out: MTS percentage survival @ 100 µM
[17] = system: Mtb mc^27902 pMV261; assay: EtBr accumulation assay; assay type: cell-based, Mycobacterium tuberculosis; settings: compound at ½ the MIC; absence or presence of glucose; 60 min
[18] = system: Mtb mc^27902 pMV261; assay type: cell-based, Mycobacterium tuberculosis; settings: for TMM levels (TLC): at the highest concentrations
[19] = system: M. bovis BCG; settings: microplate alamar blue assay; cited from earlier work
[20] = system: M. bovis BCG containing the pVVdesA3 overexpression plasmid; set-up: method as in PMID 14559907; settings: M. bovis BCG with pVVdesA3 overexpression plasmid; microplate alamar blue assay; cited from earlier work
[21] = system: tuberculosis patients; set-up: method as in PMID 5535617; settings: monotherapy; after an 8-week regimen; cited from earlier work
[22] = system: Mtb mc^27902 pMV261; assay: Synergy (two-drug checkerboard style) assay; assay type: cell-based, Mycobacterium tuberculosis; settings: in combination with RIF
[23] = system: Mtb mc^27902 pMV261; assay type: cell-based, Mycobacterium tuberculosis; settings: in the presence of glucose; 37 °C, 30 min
[24] = mc^27902 pMV261, REMA, read-out: Mtb MIC95

CC(C)CCOc1ccc(NC(=S)Nc2ccc(OCCC(C)C)cc2)cc1 [ISO, 4,4′-diisoamyloxydiphenylthiourea]
MIC [1, 24]: 0.2 µg/mL
MIC ([1]; values used for the SI, in brackets, […], read-out: MIC95): 0.2 µg/mL
MIC ([1]; values used for the SI, […], read-out: MIC95): 0.49 µM
MIC [2]: > 32 µg/mL
MIC [3]: > 32 µg/mL
MIC [4]: > 32 µg/mL
MIC [5]: > 32 µg/mL
MIC [6]: > 32 µg/mL
MIC [7]: > 32 µg/mL
MIC [8]: > 32 µg/mL
MIC [9]: > 32 µg/mL
MIC [10]: > 32 µg/mL
MIC [11]: > 32 µg/mL
MIC [12]: > 32 µg/mL
MIC [13]: > 32 µg/mL
viability at 100 µM [14]: 34.5%
IC50 [14]: 18.8 µM
selectivity index (SI) ([14]; from RAW264.7 IC50 and Mtb MIC95): 38
viability at 100 µM [15]: 95.4 ± 4.3%
viability at 100 µM [16]: 38.9 ± 13.9%
accumulation of EtBr [17]: increased accumulation of EtBr
TDM and glucose monomycolate levels (TLC) [18]: decrease in TDM and glucose monomycolate
effect on mycolic acid biosynthesis (FAMEs/MAMEs, TLC/autoradiography) [18]: mycolate depletion was observed in both the cell wall-bound and whole cell analysis
TMM levels (TLC) [18]: not observed
MIC [19]: 3.0 µg/mL (≈ 7.49 µM)
MIC [20]: 6.0 µg/mL (≈ 15 µM)
patients testing sputum negative [21]: 25%

CC(C)CCOc1ccc(NC(=S)NC2C3CC4CC(C3)CC2C4)cc1 (stereo not shown) [Ad-2-ISO, 1-((1r,3r,5r,7r)-adamantan-2-yl)-3–(4-(isopentyloxy)phenyl)thiourea]
MIC [1, 24]: 2.88 µg/mL
MIC [2]: > 32 µg/mL
MIC [3]: > 32 µg/mL
MIC [4]: > 32 µg/mL
MIC [5]: > 32 µg/mL
MIC [6]: > 32 µg/mL
MIC [7]: > 32 µg/mL
MIC [8]: > 32 µg/mL
MIC [9]: > 32 µg/mL
MIC [10]: > 32 µg/mL
MIC [11]: > 32 µg/mL
MIC [12]: > 32 µg/mL
MIC [13]: > 32 µg/mL
viability at 100 µM [14]: 22.5 ± 0.9%
IC50 [14]: 95.3 µM
viability at 100 µM [15]: 13.4 ± 5.1%
viability at 100 µM [16]: 51.1 ± 17.7%
FICI [22]: 0.52
efflux of EtBr [23]: significantly increased the overall efflux of EtBr
TDM and glucose monomycolate levels (TLC) [18]: decrease in TDM and glucose monomycolate
effect on mycolic acid biosynthesis (FAMEs/MAMEs, TLC/autoradiography) [18]: more significant reduction in radiolabel incorporation
TMM levels (TLC) [18]: slight increase in the TMM levels
